Earlier results, collected in patent US8231899B2, “Quick release pharmaceutical compositions of drug substances” (Nycomed Danmark ApS, priority 1998, dated 2012).

Key:
[1] = room temperature

solubility in water and 0.1 N HCl [1] | solubility at a pH corresponding to 0.1 N HCl [1] | pKa value | SMILES
practically insoluble |  |  | CC(=O)Oc1ccccc1C(=O)O [acetylsalicylic acid]
 | less than 1 mg 100 ml | about 4.7 | CN1C(C(=O)Nc2ccccn2)=C(O)c2sc(Cl)cc2S1(=O)=O [lornoxicam]
practically insoluble |  |  | COc1ccc2c(c1)c(CC(=O)O)c(C)n2C(=O)c1ccc(Cl)cc1 [indometacin]
